# Reference: US9616140B2, “Fluorescent phospholipid ether compounds, compositions, and methods of use” (Cellectar, Inc., priority 2009, dated 2017)
# Tests used:
# [1] = tested on: xenograft and spontaneous primary and metastatic human and rodent tumor models; settings: cited from earlier work
# [2] = tested on: Caki-2 (clear cell carcinoma) cells; assay: Intensity of signal emitted by CLR1501, confocal microscopy; assay type: cell-based; settings: 5 μM CLR1501, 24 hours
# Method: (§1) Similar experiments were performed on several other cancerous cell lines: colorectal adenocarcinoma, uterine carcinoma, pancreatic carcinoma, ovarian adenocarcinoma, glioblastoma, clear cell carcinoma, and prostate adenocarcinoma. For comparison reasons, normal fibroblast cells were incubated with CLR1501.
# (§2) Briefly, cells were plated overnight in micro slides VI (Ibidi, Verona, Wis.). The next day the cells were incubated with 5 μM of CLR1501 for 24 hours at 37° C. The cells were washed with PBS before the images were taken. The images were obtained using Nikon A1R confocal microscope. The length of exposure and intensity of the laser were similar among samples. CLR1501 was obtained using Alexa Fluor 488 filters (488 nm excitation-520 nm emission wavelength).
# (§3) Table 1 illustrates intensity of signal emitted by CLR1501 in cancerous cell lines versus normal cells.
# [3] = tested on: NFA (normal fibroblast cells); assay: as above; assay type: cell-based; settings: 5 μM CLR1501, 24 hours
# Method: as §1, §2, §3
# [4] = tested on: Ovcar-3 (ovarian adenocarcinoma) cells; assay: as above; assay type: cell-based; settings: 5 μM CLR1501, 24 hours
# Method: as §1, §2, §3
# [5] = tested on: PC3 (prostate adenocarcinoma) cells; assay: as above; assay type: cell-based; settings: 5 μM CLR1501, 24 hours
# Method: as §1, §2, §3
# [6] = tested on: Panc-1 (pancreatic carcinoma) cells; assay: as above; assay type: cell-based; settings: 5 μM CLR1501, 24 hours
# Method: as §1, §2, §3
# [7] = tested on: tumor cell lines (HCT-116, MES SA/DX-5, Mia Paca-2, Panc-1, Ovcar-3, U-87MG, Caki-2, PC3); assay: Uptake of CLR1501 in cancerous cell lines versus normal cells; assay type: cell-based
# Method: as §1, §2
# [8] = tested on: skin melanoma (A375) cells; assay: Distribution of CLR1501 in cancer skin cells; assay type: cell-based
# Method: To study the distribution of CLR1501 in cancer skin cells versus normal skin cells, CLR1501 was introduced into skin melanoma (A375) and normal skin (704sk) cells, purchased from ATCC. Both cells were maintained at 37° C. in DMEM media supplemented with 10% FBS and 5% CO2. Before imaging, the cells were removed from flasks with 0.25% trypsin and were allowed to grow overnight on the slides (Ibidi, microslides VI flat, Catalog No: 80626). […] CRL1501 was formulated with 0.4% of Polysorbate 20, 2% of ethanol and saline. After washing thoroughly with PBS, the cells were imaged using Bio-Rad Radiance 2100 MP Rainbow with 1 second exposure time.
# [9] = tested on: normal skin (704sk) cells; assay: Distribution of CLR1501 in normal skin cells; assay type: cell-based; settings: 7.5 μM, 24 hours
# Method: To study the distribution of CLR1501 in cancer skin cells versus normal skin cells, CLR1501 was introduced into skin melanoma (A375) and normal skin (704sk) cells, purchased from ATCC. Both cells were maintained at 37° C. in DMEM media supplemented with 10% FBS and 5% CO2. Before imaging, the cells were removed from flasks with 0.25% trypsin and were allowed to grow overnight on the slides (Ibidi, microslides VI flat, Catalog No: 80626). The next day, the media was gently replaced with Phosphate Buffered Saline (PBS) and the cells were incubated with 7.5 μM of CLR1501 on DMEM media for 24 hours. CRL1501 was formulated with 0.4% of Polysorbate 20, 2% of ethanol and saline. After washing thoroughly with PBS, the cells were imaged using Bio-Rad Radiance 2100 MP Rainbow with 1 second exposure time.
# [10] = tested on: glioblastoma cells (U87MG); assay: Incubation of glioblastoma cells with CLR1501 and co-staining; assay type: cell-based; settings: 48 hours
# Method: The following co-stained dyes were used: Hoechst 33342 (1 μg/mL) (nucleus; blue color), Mitotracker (25 nM) (mitochondria, red color) and Blue-White DPX (100 nM) (Endoplasmic Reticulum (ER), blue color) were diluted in PBS and added to the cells for 15 minutes. The cells were washed with PBS and imaged with Bio-Rad Radiance 2100 MP Rainbow.
# NFA cells [11] = assay: Co-culture NFA/PC3, co-staining with nucleus stain and mitochondria marker; assay type: cell-based; settings: NFA (normal), 5 μM, 24 hours
# Method: (§4) Briefly, NFA and PC3 cell lines were co-cultured overnight on micro slide VI (Ibidi, Verona, Wis.). The next day, the cells were incubated with 5 μM of CLR1501 for 24 hours at 37° C. in complete media. The next day after washing with PBS, the cells were co-stained with nucleus stain (Hoechst 33342) and mitochondria marker (Mitotracker), (Invitrogen, Carlsbad, Calif.). The cells were observed using Nikon A1R confocal microscope. CLR1501 was excited and detected using Alexa-Fluor 488 filter, while nucleus stain and mitochondria stain were excited and detected using DAPI filter and Texas-Red filter, respectively.
# PC3 cells = assay: as above; assay type: cell-based; settings: 5 μM, 24 hours
# Method: as §4
# Caki-2 cells = assay: Co-culture NFA/Caki-2, co-staining with nucleus stain and lysosome marker; assay type: cell-based; settings: 5 μM, 24 hours
# Method: as §4, with “and Caki-2” for “and PC3”, “and lysosome” for “and mitochondria”, “marker (Lyso-tracker),” for “marker (Mitotracker),”, “488 filter” for “488 filter,”, “DAPI” for “DAPI filter”
# NFA cells [12] = assay: as above; assay type: cell-based; settings: co-culture with Caki-2, 5 μM, 24 hours
# Method: as §4, with “and Caki-2” for “and PC3”, “and lysosome” for “and mitochondria”, “marker (Lyso-tracker),” for “marker (Mitotracker),”, “488 filter” for “488 filter,”, “DAPI” for “DAPI filter”
# [13] = tested on: Panc-1 (pancreatic carcinoma) tumors; assay: In vivo fluorescence imaging of CLR1501 distribution in Panc-1 tumor-bearing athymic nude mice; design: species or system mouse
# Method: Athymic nude mice (Hsd: Athymic Nude-Fox1^nu), inoculated with Panc-1 (Pancreatic carcinoma), were injected with 150 μL of 6 mg/mL CLR1501 formulated in 0.4% Polysorbate 20, 2% ethanol and saline 24 hour and 96 hours prior to imaging. The fluorescence images were obtained using a Kodak In-Vivo Multispectral System FX. The system provides multispectral tuning of excitation light which is able to separate signals from the dye and from the body autofluorescence. Mice were anesthetized by inhalation of isofluorane. The dyes were excited at 570 nm. […] The mouse was inoculated with 1×10^6 Panc-1 cells (human pancreatic carcinoma). […] CLR1501 was excited at 480 and emitted at 520 nm. The intensity was monitored at 24 and 96 hours using Kodak in vivo imaging system (Carestream Health, Woodbridge, Conn.).
# [14] = tested on: Panc-1 cells (human pancreatic carcinoma); assay: Retention of CLR1501 in pre-incubated Panc-1 cells inoculated into athymic nude mouse; assay type: in vivo; settings: Panc-1 cells incubated 4 hours, then inoculated
# Method: FIG. 10 depicts tumor co-localization of CLR1501 in athymic nude mouse. […] The mouse was inoculated with 1×10^6 Panc-1 cells (human pancreatic carcinoma) which were incubated with CLR1501 or Kodak X-Sight 761 or both CLR1501 and Kodak X-Sight 761 for 4 hours. The cells were harvested and inoculated in different spots. The signals from each dye were obtained using Kodak in vivo imaging system (Carestream Health, Woodbridge, Conn.). CLR1501 was excited at 480 and emitted at 520 nm while the Kodak X-Sight was excited at 750 and emitted at 830 nm.
# [15] = injected 96 hours prior to imaging
smiles,measurement,setting,value
"C[N+](C)(C)CCOP(=O)([O-])OCCCCCCCCCCCCCCCCCCc1ccc(I)cc1 [NM404, 18-p-(iodophenyl)-octadecyl phosphocholine]",Duration of selective retention in tumors,[1]; mouse models,> 80 days
same,Tumor models showing selective retention,[1]; xenograft and spontaneous primary and metastatic tumor models,37 out of 37
"C[N+](C)(C)CCOP(=O)([O-])OCCCCCCCCCCCCCCCCCCc1ccc(C2=C3C=CC=[N+]3[B-](F)(F)n3cccc32)cc1 [CLR1501, 18-[p-(4,4-difluoro-4-bora-3a,4a-diaza-s-indacene-8-yl)-phenyl]-octadecyl phosphocholine]",Relative intensity to normal cells,[2],10.11
same,Average grey intensity,[2]; 37° C.,151.56
same,Relative intensity to normal cells,[3],1
same,Average grey intensity,[3]; 37° C.,14.99
same,Relative intensity to normal cells,[4],6.2
same,Average grey intensity,[4]; 37° C.,92.86
same,Relative intensity to normal cells,[5],12.01
same,Average grey intensity,[5]; 37° C.,180.04
same,Relative intensity to normal cells,[6],9.58
same,Average grey intensity,[6]; 37° C.,143.65
same,Uptake in cancerous cell lines,"[7]; FIGS. 2c-2i and 2k-2l, 5 μM, 24 hours",significant uptake
same,Penetration into the nucleus,[7]; the in vitro experiments overall,does not penetrate inside of the nucleus
same,Uptake by tumor cells relative to normal fibroblast cells,[7]; tumor cells of Table 1 vs NFA,6-12 times
same,Cellular distribution,"[8]; 7.5 μM, 24 hours",internalization of CLR1501 into numerous fluorescent vesicles that are scattered throughout the cytoplasm
same,Early time uptake profile,[8]; half an hour after incubation,signals are thin and limited at the plasma membrane
same,Early time uptake profile,[8]; one hour after incubation,signals are not concentrated solely in the plasma membrane: intracellular structures are also observed
same,Cellular distribution,[9],transported to the lysosomes where it was degraded
same,Site of accumulation in cells,[10],mostly accumulated in cytoplasm of the cells
same,Co-localization with organelles,"[10]; Mitotracker, Blue-White DPX",co-localized with mitochondria and ER
same,Co-localization with nucleus,NFA cells [11],not co-localized with nucleus
same,Co-localization with nucleus,PC3 cells; PC3 (tumor),not co-localized with nucleus
same,Co-localization with mitochondria,PC3 cells; PC3,co-localized with mitochondria
same,Co-localization with nucleus,Caki-2 cells; Caki-2 (tumor),not co-localized with nucleus
same,Co-localization with lysosome,Caki-2 cells; Caki-2,co-localized with lysosome
same,Co-localization with nucleus,NFA cells [12]; NFA (normal),not co-localized with nucleus
same,Co-localization with lysosome,NFA cells [12]; NFA,minimally with NFA
same,Tumor co-localization over time,"[13]; 1 mg in 0.15 mL, monitored at 24 and 96 hours, de-skinned","accumulated in tumor site, while it cleared out from the rest of normal organs"
same,Distribution of fluorescence signal in vivo,"[13]; injected 150 μL of 6 mg/mL, 24 and 96 hours prior to imaging",found mostly in the tumors
same,Accumulation in the tumor,[13]; [15],more pronounced
same,Retention of the dye in other tissues,[13]; [15],tremendously reduced
same,Retention in cancer cells after inoculation,[14],continues to be retained in these cells after in vivo subcutaneous injection
